From US8110585B2, “Bicyclic compound and pharmaceutical use thereof” (Takeda Pharmaceutical Company Limited, priority 2007, dated 2012)

How the values were obtained:
[1] = molecular target: T1, human melatonin 2 receptors (human MT2 receptors) (Homo sapiens, UniProt P49286); assay: Melatonin receptor binding inhibitory test, 2-[125I] Iodomelatonin, MT2; settings: membrane fraction of CHO-hMT2 cells, 25° C. for 2.5 hr, read-out: binding inhibitory activity as IC50 value for MT2
T1 construct: expressed in transfected cells; membrane fraction
T1 sequence (P49286 1-362): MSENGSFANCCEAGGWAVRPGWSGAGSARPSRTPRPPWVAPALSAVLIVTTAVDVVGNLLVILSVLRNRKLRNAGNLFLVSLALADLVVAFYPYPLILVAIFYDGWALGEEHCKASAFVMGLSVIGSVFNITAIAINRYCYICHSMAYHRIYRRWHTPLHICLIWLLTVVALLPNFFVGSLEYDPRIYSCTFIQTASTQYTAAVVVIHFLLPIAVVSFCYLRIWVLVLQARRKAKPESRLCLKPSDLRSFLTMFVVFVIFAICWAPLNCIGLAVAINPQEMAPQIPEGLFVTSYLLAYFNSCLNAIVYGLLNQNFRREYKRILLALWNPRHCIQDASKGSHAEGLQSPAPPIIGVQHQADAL
Procedure: (§1) Melatonin Receptor Binding Inhibitory Test
(2) Preparation of CHO-hMT2 Cells Expressing Human Melatonin 2 Receptors
A cDNA fragment (SEQ ID NO: 2) encoding full-length of human melatonin 2 receptors (human MT2 receptors) was incorporated into expression vector pCMV-Script (Stratagene, #212220) to give the plasmid that was pCMV-human MT2 receptors expression vector for animal cell expression. CHO-K1 cells (ATCC, #CCL-61) were plated at the concentration of 1.5×10^5 cells/cm^2 in a 6 well plate (ASAHI TECHNO GLASS), and cultured under the conditions of 37° C., 5% CO2 for 24 hr. For gene transfection, solution obtained by blending pCMV-human MT2 receptors expression vector (1.9 μg), Lipofectamine Transfection Reagent (Invitrogen, #18324-012) (11.3 μL) and Minimum Essential Medium Eagle (MEM) medium (Sigma, M8042) (93.8 μL), and reacting at room temperature for 20 min was added to the cells per one well. The transfected cells were cultured in MEM medium containing 10% FBS (Life Technology) and 300 μg/mL Geneticin (GIBCO, #10131), and the cell line that stably expressed the plasmid gene was selected. By a receptor binding assay using 2-[^125I] Iodomelatonin, CHO-hMT2 cell line showing specific binding of 2-[^125I] Iodomelatonin was selected from the obtained clones.
(§2) (3) Preparation of Cellular Membrane Fraction of CHO Cell (CHO-hMelR7 and CHO-hMT2) Stably Expressing Human MT1 and MT2 Receptors
(§3) CHO-hMelR7 and CHO-hMT2 cells were plated using Cellfactory (Nunc, #170009) under the conditions of 1×10^8 cells/2000 mL/flask. The cells were grown to confluent, and recovered by the following method. As the medium for CHO-hMelR7 and CHO-hMT2, MEM a containing 10% FBS and penicillin/streptomycin was used. […]
(§4) The medium was discarded, cells were washed twice with 200 mL of EDTA/PBS(−), 200 mL of EDTA/PBS(−) was further added, and the cells were stood still at room temperature for 20 min until they were released. The cells were recovered in four 50 mL tubes (Becton Dickinson, #352070), and centrifuged at 1,500 rpm for 10 min at 4° C. using a low speed cooling centrifuge (Hitachi, CF7D2). The supernatant was discarded, the pellets in the four tubes were suspended in 10 mL of PBS(−), and combined in one tube (Becton Dickinson, #352070). The mixture was further centrifuged at 1,500 rpm for 10 min at 4° C., and the obtained pellets were suspended in 20 mL of ice-cooled homogenizing buffer [10 mM NaHCO3, 5 mM EDTA, Protease inhibitor Complete (Roche), pH 7.4]. The cell suspension was homogenized 3 times using a polytron homogenizer at 20,000 rpm for 30 sec. The obtained homogenate was centrifuged (2,000 rpm, 10 min, 4° C.) using a low speed cooling centrifuge. The supernatant was recovered in an ultracentrifugation tube and ultracentrifuged (40,000 rpm, 60 min, 4° C.) using an ultracentrifuge (Beckman, L-90K). To the obtained pellets was added a suspending buffer [50 mM Tris-HCl, 1 mM EDTA, Protease inhibitor Complete (Roche), pH 7.4], and the pellets were suspended by pipetting. The protein concentration of this suspension was measured, diluted to 2 mg/mL to give cellular membrane fractions of CHO-hMelR7 and CHO-hMT2 cells. The membrane fractions were dispensed to 1.5 mL tubes (Eppendorf, #0030120.086) by 100 μL, preserved in a freezer (−80° C.) and used for a binding assay. Protein was quantified using BCA protein assay kit (Pierce) with BSA as the standard.
(§5) (4) Preparation of Membrane Fraction Suspension
(§6) Immediately before use, the membrane fractions of CHO-hMelR7 and CHO-hMT2 cells of the above-mentioned (3) were diluted 20-fold with assay buffer (50 mM Tris-HCl, pH 7.7).
(§7) (5) Preparation of 2-[^125I] Iodomelatonin Solution
(§8) 2-[^125I] Iodomelatonin (#NEX236, PerkinElmer) was diluted with the assay buffer to 400 pM for MT1 and 1 nM for MT2.
The assay buffer (80 μL) of the above-mentioned (4) was added to each well of a 96-well plate (type 3363, Corning). […]

[2] = molecular target: T2, human melatonin 1 receptors (human MT1 receptors) (Homo sapiens, UniProt P48039); assay: Melatonin receptor binding inhibitory test, 2-[125I] Iodomelatonin, MT1; settings: membrane fraction of CHO-hMelR7 cells, 25° C. for 2.5 hr, read-out: binding inhibitory activity as IC50 value for MT1
T2 construct: expressed in transfected cells; membrane fraction
Procedure: as §1
(1) Preparation of CHO-hMelR7 Cells expressing Human Melatonin 1 Receptors
A cDNA fragment (SEQ ID NO: 1) encoding full-length of human melatonin 1 receptors (human MT1 receptors) was incorporated into expression vector pAKKO-111H (former name pAKKO1.11H; Biochim Biophys Acta. Vol. 1219(2), pp. 251-259, 1994) to give plasmid pAKKO-hMelR7 for animal cell expression. CHO/dhfr-cells (ATCC, #CRL-9096) were plated at a concentration of 0.3×10^6 cells/dish in a 6 cm culture dish (Becton Dickinson), and cultured under the conditions of 37° C., 5% CO2 for 48 hr. The cells were transfected with pAKKO-hMelR7 plasmid DNA (5 μg) using Cellphect Transfection Kit (Amersham, #27-9268-01). The transfected cells were cultured in Dulbecco's modified Eagle medium (DMEM) (Sigma, #D6046) containing 10% dialyzed FBS (Biowest, #S180D), 1× Non-Essential Amino Acid (Invitrogen, #11140-050) and 50 μg/mL Gentamycin (Invitrogen, #15750-060), and the cell line that stably expressed the plasmid gene was selected. By a receptor binding assay using 2-[^125I] Iodomelatonin, CHO-hMelR7 cell line showing specific binding of 2-[^125I] Iodomelatonin was selected from the obtained clones.
as §2, §3, §4, §5, §6, §7, §8
The assay buffer (80 μL) of the above-mentioned (4) was added to each well of a 96-well plate (type 3363, Corning). Then, a test compound (compound solution diluted with DMSO to 200-fold of the final measurement concentration) was added by 2 μL. […]

T2 sequence (P48039 whole entry): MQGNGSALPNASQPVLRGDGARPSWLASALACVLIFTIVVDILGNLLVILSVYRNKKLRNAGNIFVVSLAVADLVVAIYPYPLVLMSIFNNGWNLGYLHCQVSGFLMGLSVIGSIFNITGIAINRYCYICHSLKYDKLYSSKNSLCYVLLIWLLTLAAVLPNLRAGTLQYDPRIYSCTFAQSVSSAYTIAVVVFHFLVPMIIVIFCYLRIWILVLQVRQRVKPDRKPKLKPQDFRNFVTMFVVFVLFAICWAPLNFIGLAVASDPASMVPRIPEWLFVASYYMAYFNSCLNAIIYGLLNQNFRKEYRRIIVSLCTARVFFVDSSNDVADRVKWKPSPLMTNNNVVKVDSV

SMILES	IC50 [1] [nM]	IC50 [2] [nM]	melting point [°C]
CC(=O)NC[C@@H]1C[C@H]1c1cccn2nc(C)cc12 [Example 44, N-{[(1R,2R)-2-(2-methylpyrazolo[1,5-a]pyridin-4-yl)cyclopropyl]methyl}acetamide]	≤ 100	≤ 100	100 to 101
CCC(=O)NCC1CC1c1cccc2nnsc12 (stereo not drawn) [Example 61, N-{[2-(1,2,3-benzothiadiazol-7-yl)cyclopropyl]methyl}propanamide]	≤ 100	≤ 100	67 to 69
Cc1cc2c([C@H]3C[C@@H]3CNC(=O)C3CC3)cccn2n1 [Example 48, N-{[(1S,2S)-2-(2-methylpyrazolo[1,5-a]pyridin-4-yl)cyclopropyl]methyl}cyclopropanecarboxamide]	≤ 100	≤ 100	124 to 128
COc1ccc2nn(C)cc2c1C1CC1CNC(C)=O (stereo not drawn) [Example 37, N-{[2-(5-methoxy-2-methyl-2H-indazol-4-yl)cyclopropyl]methyl}acetamide]	≤ 100	≤ 100	104 to 105
CCn1cc2c(C3CC3CNC(C)=O)cccc2n1 (stereo not drawn) [Example 16, N-{[2-(2-ethyl-2H-indazol-4-yl)cyclopropyl]methyl}acetamide]	≤ 100	≤ 100	155 to 159
CC(=O)NCC1CC1c1c(Cl)ccc2nn(C)cc12 (stereo not drawn) [Example 27, N-{[2-(5-chloro-2-methyl-2H-indazol-4-yl)cyclopropyl]methyl}acetamide]	≤ 100	≤ 100	149 to 150
CCC(=O)NC[C@@H]1C[C@H]1c1cccc2nn(C)cc12 (relative stereo) [Example 2, trans-N-{[2-(2-methyl-2H-indazol-4-yl)cyclopropyl]methyl}propanamide]	≤ 100	≤ 100	104 to 106
CC(=O)NC[C@@H]1C[C@H]1c1c(F)ccc2nn(C)cc12 (relative stereo) [Example 23, trans-N-{[2-(5-fluoro-2-methyl-2H-indazol-4-yl)cyclopropyl]methyl}acetamide]	≤ 100	≤ 100	157 to 159
CC(=O)NCC1CC1c1c(-c2cccnc2)ccc2nn(C)cc12 (stereo not drawn) [Example 35, N-{[2-(2-methyl-5-pyridin-3-yl-2H-indazol-4-yl)cyclopropyl]methyl}acetamide]	≤ 100	≤ 100	136 to 138
CC(=O)NCC1CC1c1c(C)ccc2nn(C)cc12 (stereo not drawn) [Example 31, N-{[2-(2,5-dimethyl-2H-indazol-4-yl)cyclopropyl]methyl}acetamide]	≤ 100	≤ 100	139 to 140
CC(=O)NC[C@H]1C[C@@H]1c1c(F)ccc2nn(C)cc12 [Example 24, N-{[(1S,2S)-2-(5-fluoro-2-methyl-2H-indazol-4-yl)cyclopropyl]methyl}acetamide]	≤ 100	≤ 100	120
CCC(=O)NC[C@@H]1C[C@H]1c1c(F)ccc2nn(C)cc12 (relative stereo) [Example 26, trans-N-{[2-(5-fluoro-2-methyl-2H-indazol-4-yl)cyclopropyl]methyl}propanamide]	≤ 100	≤ 100	158 to 159
CC(=O)NCC1CC1c1c(-c2ccccc2)ccc2nn(C)cc12 (stereo not drawn) [Example 34, N-{[2-(2-methyl-5-phenyl-2H-indazol-4-yl)cyclopropyl]methyl}acetamide]	≤ 100	≤ 100	156 to 158
CC(=O)NC[C@@H]1C[C@H]1c1c(F)ccc2nn(C)cc12 [Example 25, N-{[(1R,2R)-2-(5-fluoro-2-methyl-2H-indazol-4-yl)cyclopropyl]methyl}acetamide]	≤ 100	≤ 100	120
CC(=O)NCC1CC1c1c(C#N)ccc2nn(C)cc12 (stereo not drawn) [Example 36, N-{[2-(5-cyano-2-methyl-2H-indazol-4-yl)cyclopropyl]methyl}acetamide]	≤ 100	≤ 100	189 to 192
CC(=O)NCC1CC1c1cccc2nc(C)cn12 (stereo not drawn) [Example 52, N-{[2-(2-methylimidazo[1,2-a]pyridin-5-yl)cyclopropyl]methyl}acetamide]	≤ 100	≤ 100	170 to 171
CCC(=O)NC[C@@H]1C[C@H]1c1cccc2nn(C)cc12 [Example 13, N-{[(1R,2R)-2-(2-methyl-2H-indazol-4-yl)cyclopropyl]methyl}propanamide]	≤ 100	≤ 100	78 to 80
CCC(=O)NCC1CC1c1cccc2nscc12 (stereo not drawn) [Example 63, N-{[2-(2,1-benzisothiazol-4-yl)cyclopropyl]methyl}propanamide]	≤ 100	≤ 100	84 to 86
Cc1cc2c([C@@H]3C[C@H]3CNC(=O)C3CC3)cccn2n1 [Example 49, N-{[(1R,2R)-2-(2-methylpyrazolo[1,5-a]pyridin-4-yl)cyclopropyl]methyl}cyclopropanecarboxamide]	≤ 100	≤ 100	127 to 129
